In general, Ki refers to the equilibrium dissociation constant of an inhibitor or competing ligand from its target. High values mean a looser hold on the target, low ones a stronger hold on the target. Broadly, the IC50 is the concentration at which inhibition is half-maximal. The melting point is the temperature of the solid-liquid transition.

Structures can show the parent of a compound that is named as a salt.

In data set [1] the target is T1, serotonin transporter (Rattus norvegicus, UniProt P31652).
T1 construct: displace ^3H-paroxetine from male rat frontal cortical membranes; from tissue; host or cells: male rat frontal cortex membranes
T1 sequence (P31652 whole entry): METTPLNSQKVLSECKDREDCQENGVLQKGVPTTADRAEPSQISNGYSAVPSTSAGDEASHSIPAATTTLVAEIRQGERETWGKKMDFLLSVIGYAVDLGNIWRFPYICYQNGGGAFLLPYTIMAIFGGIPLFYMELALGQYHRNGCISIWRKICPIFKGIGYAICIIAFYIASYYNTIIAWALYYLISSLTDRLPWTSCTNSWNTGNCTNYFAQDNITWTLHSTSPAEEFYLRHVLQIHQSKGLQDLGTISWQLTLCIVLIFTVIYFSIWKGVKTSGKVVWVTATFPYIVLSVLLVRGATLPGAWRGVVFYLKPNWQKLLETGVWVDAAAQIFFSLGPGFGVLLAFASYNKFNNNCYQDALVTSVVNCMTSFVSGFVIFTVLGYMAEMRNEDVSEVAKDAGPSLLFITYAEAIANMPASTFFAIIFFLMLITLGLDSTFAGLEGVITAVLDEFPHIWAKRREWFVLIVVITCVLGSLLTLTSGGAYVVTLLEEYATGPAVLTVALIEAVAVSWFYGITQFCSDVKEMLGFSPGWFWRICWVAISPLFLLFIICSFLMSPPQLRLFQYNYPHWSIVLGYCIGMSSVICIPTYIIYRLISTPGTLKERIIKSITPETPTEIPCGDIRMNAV
The data set can be described thus: 3H-paroxetine displacement, serotonin transporter affinity. The format is binding.

Data set [2] concerns the target T2, cloned human 5-HT1A receptors (Homo sapiens, UniProt P08908).
T2 construct: expressed in transfected cells
T2 sequence (P08908 1-422): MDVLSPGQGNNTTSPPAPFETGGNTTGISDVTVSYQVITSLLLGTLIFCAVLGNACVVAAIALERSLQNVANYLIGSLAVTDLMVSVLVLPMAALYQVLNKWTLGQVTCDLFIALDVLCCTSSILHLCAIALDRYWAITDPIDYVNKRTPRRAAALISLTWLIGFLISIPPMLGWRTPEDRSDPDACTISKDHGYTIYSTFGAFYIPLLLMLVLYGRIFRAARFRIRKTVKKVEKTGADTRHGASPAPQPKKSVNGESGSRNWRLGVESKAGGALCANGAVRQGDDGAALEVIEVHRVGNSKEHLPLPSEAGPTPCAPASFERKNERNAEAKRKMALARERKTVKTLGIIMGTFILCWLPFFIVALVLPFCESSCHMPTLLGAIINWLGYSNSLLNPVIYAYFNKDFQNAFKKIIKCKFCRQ
The data set can be described thus: 35S-GTPγS binding assay, 5-HT1A antagonist activity. Format: biochemical. Conditions: reversal of standard agonist 8-OHDPAT; for IC50: read-out: 5-HT1A Function IC50. On the procedure: Antagonist activity at 5-HT1A receptors was established by using a ^35S-GTPγS binding assay similar to that used by Lazareno and Birdsall (Br. J. Pharmacol. 109: 1120, 1993), in which the test compound's ability to affect the binding of ^35S-GTPγS to membranes containing cloned human 5-HT1A receptors was determined. Agonists produce an increase in binding whereas antagonists produce no increase but rather reverse the effects of the standard agonist 8-OHOPAT. The test compound's maximum inhibitory effect is represented as the Imax, while its potency is defined by the IC50.
(In general: Binding of GTPγS marks nucleotide exchange on a G protein.)

Data set [3] deals with T3, human 5-HT1A receptors (Homo sapiens, UniProt P08908).
T3 construct: expressed in transfected cells; host or cells: CHO cells (stably transfected)
T3 sequence (P08908 1-422): T2 sequence (P08908 1-422)
The data set can be described thus: [3H] 8-OHDPAT displacement, 5-HT1A receptor affinity. Format: binding. The source says:
High affinity for the serotonin 5-HT1A receptor was established by testing the claimed compound's ability to displace [^3H] 8-OHDPAT (dipropylaminotetralin) from the 5-HT1A serotonin receptor following a modification of the procedure of Hall et al., J. Neurochem. 44, 1685 (1985) which utilizes CHO cells stably transfected with human 5-HT1A receptors.

Consider `Fc1ccc2c(C3=CCN(CC4COc5cccnc5O4)CC3)c[nH]c2c1` (centres unmarked) [Example 4, 3-{[4-(6-Fluoro-1H-indol-3-yl)-3,6-dihydro-1(2H)-pyridinyl]methyl}-2,3-dihydro[1,4]dioxino[2,3-b]pyridine], for which the Ki in data set [1] was determined as 1.21 nM; in data set [3] it was 10.2 nM. The IC50 in data set [2] turned out to be 618 nM.

With `Fc1ccc2[nH]cc(C3=CCN(CC4COc5cccnc5O4)CC3)c2c1` (centres unmarked) [Example 2, 3-{[4-(5-Fluoro-1H-indol-3-yl)-3,6-dihydro-1(2H)-pyridinyl]methyl}-2,3-dihydro{1,4]dioxino[2,3-b]pyridine], the Ki in data set [1] is 2.39 nM; in data set [3], 6.81 nM. The IC50 in data set [2] worked out at 57 nM.

`C1=C(c2c[nH]c3ccccc23)CCN(C[C@H]2COc3cccnc3O2)C1` (as salt: oxalate) [Example 1] yielded a melting point of 116 °C.

`Fc1ccc2[nH]cc(C3=CCN(CC4COc5cccnc5O4)CC3)c2c1` (centres unmarked) (as salt: oxalate) [Example 2, 3-{[4-(5-Fluoro-1H-indol-3-yl)-3,6-dihydro-1(2H)-pyridinyl]methyl}-2,3-dihydro{1,4]dioxino[2,3-b]pyridine] came in with a melting point of 124 °C.

In turn, `Fc1ccc2c(C3=CCN(CC4COc5cccnc5O4)CC3)c[nH]c2c1` (centres unmarked) (as salt: oxalate) [Example 4, 3-{[4-(6-Fluoro-1H-indol-3-yl)-3,6-dihydro-1(2H)-pyridinyl]methyl}-2,3-dihydro[1,4]dioxino[2,3-b]pyridine] gave a melting point of 120 °C.

Consider `N#Cc1ccc2[nH]cc(C3=CCN(CC4COc5cccnc5O4)CC3)c2c1` (centres unmarked) (as salt: oxalate) [Example 3, 3-{1-[2,3-Dihydro[1,4]dioxino[2,3-b]pyridin-3-ylmethyl]-1,2,3,6-tetrahydro-4-pyridinyl}-1H-indole-5-carbonitrile], for which the melting point turned out to be 165 °C.

`N#Cc1ccc2[nH]cc(C3=CCN(CC4COc5cccnc5O4)CC3)c2c1` (centres unmarked) [Example 3, 3-{1-[2,3-Dihydro[1,4]dioxino[2,3-b]pyridin-3-ylmethyl]-1,2,3,6-tetrahydro-4-pyridinyl}-1H-indole-5-carbonitrile] returned a Ki in data set [1] of 2.58 nM. In addition, in data set [2], the “5-HT1A Function Imax (maximum inhibitory effect)” value came to 100% and the IC50 worked out at 183 nM. This molecule also showed a Ki in data set [3] of 22.4 nM.

On to `C1=C(c2c[nH]c3ccccc23)CCN(C[C@H]2COc3cccnc3O2)C1` [Example 1], for which the Ki in data set [1] came out at 9.5 nM; in data set [3], 14.3 nM. The IC50 in data set [2] was determined as 197 nM.

These data come from patent US6987117B2, “Antidepressant azaheterocyclylmethyl derivatives of 1,4-dioxino[2,3-b]pyridine” (Wyeth, priority 2001, dated 2006).
